Data as given in US6720339B2, “Certain fused pyrrolecarboxamides; a new class of GABA brain receptor ligands” (Neurogen Corporation, priority 1996, dated 2004).

System: not given
Assay: not given
Conditions: not given

SMILES | melting point
CC1CC(=O)c2c(C(=O)Nc3ccccc3)c[nH]c2C1 (stereo not shown) [Compound 4, N-Phenyl-4-oxo-6-methyl-4,5,6,7-tetraydro-1H-indole-3-carboxamide] | 278 to 279 °C
CC1CC(=O)c2c(C(=O)Nc3ccccc3F)c[nH]c2C1 (stereo not shown) [Compound 5, N-(2-Fluorophenyl)-4-oxo-6-methyl-4,5,6,7-tetrahydro-1H-indole-3-carboxamide] | 264 to 265 °C
COc1ccc(NC(=O)c2c[nH]c3c2C(=O)CC(C)C3)c(F)c1 (stereo not shown) [Compound 6, N-(2-Fluoro-4-methoxyphenyl)-4-oxo-6-methyl-4,5,6,7-tetrahydro-1H-indole-3-carboxamide] | 217 to 219 °C
CC1(C)CC(=O)c2c(C(=O)Nc3ccc4cccnc4n3)c[nH]c2C1 [Compound 8, N-(1,8-Napthyridin-2yl)-4-oxo-6,6-dimethyl-4,5,6,7-tetrahydro-1H-indole-3-carboxamide] | 389 to 390 °C
CC1CC(=O)c2c(C(=O)Nc3ccc4ccccc4n3)c[nH]c2C1 (stereo not shown) [Compound 10, N-(2-Quinolinyl)-4-oxo-6-methyl-4,5,6,7-tetrahydro-1H-indole-3-carboxamide] | 273 to 275 °C
CC1(C)CC(=O)c2c(C(=O)Nc3cccc(F)c3)c[nH]c2C1 [Example 3(b), N-(3-Fluorophenyl)-4-oxo-6,6-dimethyl-4,5,6,7-tetrahydro-1H-indole-3-carboxamide] | 259 to 261 °C
CCOc1ccc(NC(=O)c2c[nH]c3c2C(=O)CC(C)C3)c(F)c1 (stereo not shown) [Example 3(bb), N-(2-Fluoro-4-ethoxyphenyl)-4-oxo-6-methyl-4,5,6,7-tetrahydro-1H-indole-3-carboxamide] | 224 to 225 °C
CC1(C)CC(=O)c2c(C(=O)Nc3ccc(F)cc3)c[nH]c2C1 [Example 3(c), N-(4-Fluorophenyl)-4-oxo-6,6-dimethyl-4,5,6,7-tetrahydro-1H-indole-3-carboxamide] | 268 to 270 °C
CC1CC(=O)c2c(C(=O)Nc3ccc(O)c(O)c3)c[nH]c2C1 (stereo not shown) [Example 3(cc), N-(3,4-Dihydroxyphenyl)-4-oxo-6-methyl-4,5,6,7-tetrahydro-1H-indole-3-carboxamide] | 267 to 269 °C
Cc1ccc(NC(=O)c2c[nH]c3c2C(=O)CC(C)C3)c(O)c1 (stereo not shown) [Example 3(dd), N-(2-Hydroxy-4-methylphenyl)-4-oxo-6-methyl-4,5,6,7-tetrahydro-1H-indole-3-carboxamide] | 258 to 260 °C
COc1ccc(NC(=O)c2c[nH]c3c2C(=O)CC(C)(C)C3)c(O)c1 [Example 3(g), N-(2-Hydroxy-4-methoxyphenyl)-4-oxo-6,6-dimethyl-4,5,6,7-tetrahydro-1H-indole-3-carboxamide] | 190 to 192 °C
COc1ccc(NC(=O)c2c[nH]c3c2C(=O)CC(C)(C)C3)cc1O [Example 3(h), N-(3-Hydroxy-4-methoxyphenyl)-4-oxo-6,6-dimethyl-4,5,6,7-tetrahydro-1H-indole-3-carboxamide] | 282 to 284 °C
CC1(C)CC(=O)c2c(C(=O)Nc3cccnc3)c[nH]c2C1 [Example 3(hh), N-(3-Pyridyl)-4-oxo-6,6-dimethyl-4,5,6,7-tetrahydro-1H-indole-3-carboxamide] | 237 to 239 °C
COc1ccc(NC(=O)c2c[nH]c3c2C(=O)CC(C)(C)C3)c(F)c1 [Example 3(i), N-(2-Fluoro-4-methoxyphenyl)-4-oxo-6,6-dimethyl-4,5,6,7-tetrahydro-1H-indole-3-carboxamide] | 213 to 215 °C
COc1ccncc1NC(=O)c1c[nH]c2c1C(=O)CC(C)(C)C2 [Example 3(ii), N-(4-Methoxy-3-pyridyl)-4-oxo-6,6-dimethyl-4,5,6,7-tetrahydro-1H-indole-3-carboxamide] | 217 to 218 °C
CC1(C)CC(=O)c2c(C(=O)Nc3ccc(O)cc3F)c[nH]c2C1 [Example 3(l), N-(2-Fluoro-4-hydroxyphenyl)-4-oxo-6,6-dimethyl-4,5,6,7-tetrahydro-1H-indole-3-carboxamide] | 225 to 227 °C
CC1CC(=O)c2c(C(=O)Nc3cccnc3)c[nH]c2C1 (stereo not shown) [Example 3(ll), N-(3-Pyridyl)-4-oxo-6-methyl-4,5,6,7-tetrahydro-1H-indole-3-carboxamide] | 225 to 227 °C
CC1CC(=O)c2c(C(=O)Nc3ccncc3)c[nH]c2C1 (stereo not shown) [Example 3(mm), N-(4-Pyridyl)-4-oxo-6-methyl-4,5,6,7-tetrahydro-1H-indole-3-carboxamide] | 280 to 290 °C
CC1CC(=O)c2c(C(=O)Nc3cccc(F)c3)c[nH]c2C1 (stereo not shown) [Example 3(s), N-(3-Fluorophenyl)-4-oxo-6-methyl-4,5,6,7-tetrahydro-1H-indole-3-carboxamide] | 302 to 303 °C
CC1CC(=O)c2c(C(=O)Nc3ccc(F)cc3)c[nH]c2C1 (stereo not shown) [Example 3(t), N-(4-Fluorophenyl)-4-oxo-6-methyl-4,5,6,7-tetrahydro-1H-indole-3-carboxamide] | 262 to 264 °C
COc1cccc(NC(=O)c2c[nH]c3c2C(=O)CC(C)C3)c1 (stereo not shown) [Example 3(u), N-(3-Methoxyphenyl)-4-oxo-6-methyl-4,5,6,7-tetrahydro-1H-indole-3-carboxamide] | 234 to 235 °C
CC1CC(=O)c2c(C(=O)Nc3ccc(O)cc3)c[nH]c2C1 (stereo not shown) [Example 3(v), N-(4-Hydroxyphenyl)-4oxo-6-methyl-4,5,6,7-tetrahydro-1H-indole-3-carboxamide] | 320 °C
COc1ccc(NC(=O)c2c[nH]c3c2C(=O)CC(C)C3)c(O)c1 (stereo not shown) [Example 3(x), N-(2-Hydroxy-4-methoxyphenyl)-4-oxo-6methyl-4,5,6,7-tetrahydro-1H-indole-3-carboxamide] | 236 to 238 °C
COc1ccc(NC(=O)c2c[nH]c3c2C(=O)CC(C)C3)cc1 (stereo not shown) [Example 3(y), N-(4-Methoxyphenyl)-4-oxo-6-methyl-4,5,6,7-tetrahydro-1H-indole-3-carboxamide] | 260 to 261 °C

Target: GABAa receptor (benzodiazepine receptor)
Assay: GABAa receptor binding assay (3H-RO15-1788 [3H-Flumazenil] displacement, rat cortical tissue homogenate)
Conditions: radioligand 0.5 nM 3H-RO15-1788 (3H-Flumazenil), 30 min at 4° C.
Description: The pharmaceutical utility of compounds of this invention are indicated by the following assay for GABAa receptor binding activity.
Assays are carried out as described in Thomas and Tallman (J. Bio. Chem. 156: 9838-9842, J. Neurosci. 3: 433-440, 1983). Rat cortical tissue is dissected and homogenized in 25 volumes (w/v) of 0.05 M Tris HCl buffer (pH 7.4 at 4° C.). The tissue homogenate is centrifuged in cold (4° C.) at 20,000×g for 20′. The supernatant is decanted and the pellet is rehomogenized in the same volume of buffer and again centrifuged at 20,000×g. The supernantant is decanted and the pellet is frozen at −20° C. overnight. The pellet is then thawed and rehomogenized in 25 volume (orginal wt/vol) of buffer and the procedure is carried out twice. The pellet is finally resuspended in 50 volumes (w/vol of 0.05 M Tris HCl buffer (pH 7.4 at […]).
Incubations contain […] of tissue homogenate, […] of radioligand 0.5 nM (^3H-RO15-1788 [^3H-Flumazenil] specific activity 80 Ci/mmol), drug or blocker and buffer to a total volume of […]. Incubations are carried for 30 min at 4° C. then are rapidly filtered through GFB filters to separate free and bound ligand. Filters are washed twice with fresh 0.05 M Tris HCl buffer (pH 7.4 at 4° C.) and counted in a liquid scintillation counter. 1.0 mM diazepam is added to some tubes to determine nonspecific binding. Data are collected in triplicate determinations, averaged and % inhabition of total specific binding is calculated. Total Specific Binding=Total−Nonspecific. In some cases, the amounts of unlabeled drugs is varied and total displacement curves of binding are carried out.

SMILES | Ki
CC1(C)CC(=O)c2c(C(=O)Nc3ccccc3)c[nH]c2C1 [Compound 1, N-Phenyl-4-oxo-6,6-dimethyl-4,5,6,7-tetrahydro-1H-indole-3-carboxamide] | 21 nM
CC1(C)CC(=O)c2c(C(=O)Nc3ccccc3F)c[nH]c2C1 [Compound 2] | 12 nM
COc1ccc(NC(=O)c2c[nH]c3c2C(=O)CC(C)(C)C3)cc1 [Compound 3, N-(4-Methoxyphenyl)-4-oxo-6,6-dimethyl-4,5,6,7-tetrahydro-1H-indole-3-carboxamide] | 13 nM
CC1CC(=O)c2c(C(=O)Nc3ccccc3)c[nH]c2C1 (stereo not shown) [Compound 4, N-Phenyl-4-oxo-6-methyl-4,5,6,7-tetraydro-1H-indole-3-carboxamide] | 1 nM
CC1CC(=O)c2c(C(=O)Nc3ccccc3F)c[nH]c2C1 (stereo not shown) [Compound 5, N-(2-Fluorophenyl)-4-oxo-6-methyl-4,5,6,7-tetrahydro-1H-indole-3-carboxamide] | 0.5 nM
COc1ccc(NC(=O)c2c[nH]c3c2C(=O)CC(C)C3)c(F)c1 (stereo not shown) [Compound 6, N-(2-Fluoro-4-methoxyphenyl)-4-oxo-6-methyl-4,5,6,7-tetrahydro-1H-indole-3-carboxamide] | 1 nM
CC1(C)CC(=O)c2c(C(=O)Nc3ccsc3)c[nH]c2C1 [Compound 7, N-(3-Thienyl)-4-oxo-6,6-dimethyl-4,5,6,7-tetrahydro-1H-indole-3-caboxamide] | 10 nM
CC1(C)CC(=O)c2c(C(=O)Nc3ccc4cccnc4n3)c[nH]c2C1 [Compound 8, N-(1,8-Napthyridin-2yl)-4-oxo-6,6-dimethyl-4,5,6,7-tetrahydro-1H-indole-3-carboxamide] | 80 nM
CC1CC(=O)c2c(C(=O)Nc3ccc4cccnc4n3)c[nH]c2C1 (stereo not shown) [Compound 9, N-(1,8-Napthyridin-2-yl)-4-oxo-6-methyl-4,5,6,7-tetahydro-1H-indole-3-carboxamide] | 4 nM
CC1CC(=O)c2c(C(=O)Nc3ccc4ccccc4n3)c[nH]c2C1 (stereo not shown) [Compound 10, N-(2-Quinolinyl)-4-oxo-6-methyl-4,5,6,7-tetrahydro-1H-indole-3-carboxamide] | 12 nM
